This is an account of results in patent US7846959B2, “Raf modulators and methods of use” (Exelixis, Inc., priority 2004, dated 2010).

The structures appear in SMILES notation.

For orientation: IC50 means the concentration that gives 50% inhibition.

One assay concerns the target c-Raf (Homo sapiens, UniProt P04049). Nature of the assay: Luciferase-coupled chemiluminescence kinase assay (ATP consumption), c-Raf. It counts as biochemical. The settings on record: read-out: cRaf-1 IC50. In a few lines:
(§1)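 Compound is first mixed with […] Raf enzyme in 20 mM Tris pH 7.5 containing 10 mM MgCl2, 0.03% TX-100 and 1 mM DTT (30 min, room temperature). ATP then starts a 3 h reaction, and unconsumed ATP is detected by chemiluminescence.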

The target in another assay is B-Raf (Homo sapiens, UniProt P15056). As to the kind of experiment: Luciferase-coupled chemiluminescence kinase assay (ATP consumption), B-Raf. The settings on record: read-out: bRaf IC50. It counts as biochemical. Summed up:
as §1

Chain of B-Raf (P15056 whole entry): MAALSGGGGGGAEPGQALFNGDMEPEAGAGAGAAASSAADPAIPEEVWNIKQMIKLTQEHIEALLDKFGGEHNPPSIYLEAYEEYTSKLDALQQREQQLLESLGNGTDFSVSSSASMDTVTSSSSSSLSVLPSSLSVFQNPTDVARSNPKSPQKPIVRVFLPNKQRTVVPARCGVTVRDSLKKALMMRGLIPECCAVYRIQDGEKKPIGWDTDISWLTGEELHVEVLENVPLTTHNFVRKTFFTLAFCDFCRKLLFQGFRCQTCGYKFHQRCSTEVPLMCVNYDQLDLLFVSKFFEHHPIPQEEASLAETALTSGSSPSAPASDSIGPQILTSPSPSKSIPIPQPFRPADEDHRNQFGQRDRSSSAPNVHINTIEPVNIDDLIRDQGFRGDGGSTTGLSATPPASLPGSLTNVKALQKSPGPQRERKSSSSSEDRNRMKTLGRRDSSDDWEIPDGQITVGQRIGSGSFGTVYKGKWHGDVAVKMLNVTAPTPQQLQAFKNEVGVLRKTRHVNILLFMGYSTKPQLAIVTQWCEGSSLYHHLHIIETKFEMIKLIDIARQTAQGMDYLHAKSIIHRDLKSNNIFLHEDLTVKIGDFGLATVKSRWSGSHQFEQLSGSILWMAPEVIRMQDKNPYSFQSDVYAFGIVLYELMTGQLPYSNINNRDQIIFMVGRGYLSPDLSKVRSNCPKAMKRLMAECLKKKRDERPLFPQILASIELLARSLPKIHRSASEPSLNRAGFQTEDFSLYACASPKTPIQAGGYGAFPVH
Chain of c-Raf (P04049 whole entry): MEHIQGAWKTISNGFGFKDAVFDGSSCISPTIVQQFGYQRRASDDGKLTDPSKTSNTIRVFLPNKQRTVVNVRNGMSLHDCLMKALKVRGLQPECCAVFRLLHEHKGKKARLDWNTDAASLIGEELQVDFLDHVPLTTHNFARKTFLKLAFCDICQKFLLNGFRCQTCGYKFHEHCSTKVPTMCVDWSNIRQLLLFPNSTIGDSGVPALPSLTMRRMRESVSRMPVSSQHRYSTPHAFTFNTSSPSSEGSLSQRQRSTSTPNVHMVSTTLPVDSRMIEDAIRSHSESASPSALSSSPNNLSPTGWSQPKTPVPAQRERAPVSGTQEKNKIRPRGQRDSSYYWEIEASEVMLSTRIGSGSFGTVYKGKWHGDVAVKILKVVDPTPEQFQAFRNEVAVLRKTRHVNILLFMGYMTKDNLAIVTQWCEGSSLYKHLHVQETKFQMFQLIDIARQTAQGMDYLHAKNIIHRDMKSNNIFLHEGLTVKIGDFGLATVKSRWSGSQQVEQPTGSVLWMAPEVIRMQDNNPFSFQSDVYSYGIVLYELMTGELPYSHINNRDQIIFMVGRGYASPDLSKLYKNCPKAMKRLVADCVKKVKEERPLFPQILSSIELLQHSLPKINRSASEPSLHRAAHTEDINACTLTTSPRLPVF

For `COC(=O)Nc1nc2cc(C3(O)c4ccccc4C(=O)N3c3cccc(OC)c3)ccc2[nH]1` (stereo not drawn) [Entry 137, methyl (5-{1-hydroxy-2-[3-(methyloxy)phenyl]-3-oxo-2,3-dihydro-1H-isoindol-1-yl}-1H-benzimidazol-2-yl)carbamate], the IC50 at c-Raf and on B-Raf was less than 0.1 µM throughout.
For the compound `COC(=O)Nc1nc2cc(C3(O)c4ccccc4C(=O)N3c3ccc(Br)cc3)ccc2[nH]1` (stereo not drawn) [Entry 138, methyl {5-[2-(4-bromophenyl)-1-hydroxy-3-oxo-2,3-dihydro-1H-isoindol-1-yl]-1H-benzimidazol-2-yl}carbamate], the IC50 at c-Raf and at B-Raf was 0.1 to 1 µM each time.
On to `COC(=O)Nc1nc2cc(C3(O)c4ccccc4C(=O)N3c3ccc(Cl)cc3)ccc2[nH]1` (stereo not drawn) [Entry 139, methyl {5-[2-(4-chlorophenyl)-1-hydroxy-3-oxo-2,3-dihydro-1H-isoindol-1-yl]-1H-benzimidazol-2-yl}carbamate], for which the concentration for half-maximal inhibition (IC50) at c-Raf and at B-Raf was less than 0.1 µM throughout.
`COC(=O)Nc1nc2cc(C3(O)c4ccccc4C(=O)N3c3ccc(F)cc3)ccc2[nH]1` (stereo not drawn) [Entry 140, methyl {5-[2-(4-fluorophenyl)-1-hydroxy-3-oxo-2,3-dihydro-1H-isoindol-1-yl]-1H-benzimidazol-2-yl}carbamate]: the IC50 on c-Raf and at B-Raf was less than 0.1 µM throughout.
`COC(=O)Nc1nc2cc(C3(O)c4ccccc4C(=O)N3c3cc(C)cc(C)c3)ccc2[nH]1` (stereo not drawn) [Entry 141, methyl {5-[2-(3,5-dimethylphenyl)-1-hydroxy-3-oxo-2,3-dihydro-1H-isoindol-1-yl]-1H-benzimidazol-2-yl}carbamate]: the 50% inhibitory concentration (IC50) at c-Raf and on B-Raf was less than 0.1 µM in each case.
For the compound `COC(=O)Nc1nc2cc(C3(O)c4ccccc4C(=O)N3c3ccccc3F)ccc2[nH]1` (stereo not drawn) [Entry 142, methyl {5-[2-(2-fluorophenyl)-1-hydroxy-3-oxo-2,3-dihydro-1H-isoindol-1-yl]-1H-benzimidazol-2-yl}carbamate], the concentration for half-maximal inhibition (IC50) at c-Raf and on B-Raf was less than 0.1 µM in each case.
For the compound `COC(=O)Nc1nc2cc(C3(O)c4ccccc4C(=O)N3c3ccccc3Cl)ccc2[nH]1` (stereo not drawn) [Entry 143, methyl {5-[2-(2-chlorophenyl)-1-hydroxy-3-oxo-2,3-dihydro-1H-isoindol-1-yl]-1H-benzimidazol-2-yl}carbamate], the IC50 on c-Raf and at B-Raf was less than 0.1 µM throughout.
With `COC(=O)Nc1nc2cc(C3(O)c4ccccc4C(=O)N3c3ccccc3C)ccc2[nH]1` (stereo not drawn) [Entry 144, methyl {5-[1-hydroxy-2-(2-methylphenyl)-3-oxo-2,3-dihydro-1H-isoindol-1-yl]-1H-benzimidazol-2-yl}carbamate], the IC50 on c-Raf and at B-Raf was less than 0.1 µM in each case.
In the case of `COC(=O)Nc1nc2cc(C3(O)c4ccccc4C(=O)N3c3ccccc3OC)ccc2[nH]1` (stereo not drawn) [Entry 145, methyl (5-{1-hydroxy-2-[2-(methyloxy)phenyl]-3-oxo-2,3-dihydro-1H-isoindol-1-yl}-1H-benzimidazol-2-yl)carbamate], the half-inhibitory concentration (IC50) at c-Raf and at B-Raf was less than 0.1 µM each time.
For `COC(=O)Nc1nc2cc(C3(O)c4ccccc4C(=O)N3c3ccc(C)cc3)ccc2[nH]1` (stereo not drawn) [Entry 146, methyl {5-[1-hydroxy-2-(4-methylphenyl)-3-oxo-2,3-dihydro-1H-isoindol-1-yl]-1H-benzimidazol-2-yl}carbamate], the IC50 on c-Raf and at B-Raf was 0.1 to 1 µM each time.
Turning to `COC(=O)Nc1nc2cc(C3(O)c4ccccc4C(=O)N3c3cccc(C(F)(F)F)c3)ccc2[nH]1` (stereo not drawn) [Entry 147, methyl (5-{1-hydroxy-3-oxo-2-[3-(trifluoromethyl)phenyl]-2,3-dihydro-1H-isoindol-1-yl}-1H-benzimidazol-2-yl)carbamate], the IC50 at c-Raf and at B-Raf was less than 0.1 µM each time.
In the case of `CC#CCOC(=O)Nc1nc2cc(C3(O)c4ccccc4C(=O)N3[C@H](C)c3ccccc3)ccc2[nH]1` (stereo partly drawn) [Entry 148, but-2-yn-1-yl (5-{1-hydroxy-3-oxo-2-[(1R)-1-phenylethyl]-2,3-dihydro-1H-isoindol-1-yl}-1H-benzimidazol-2-yl)carbamate], the 50% inhibitory concentration (IC50) at c-Raf and at B-Raf was less than 0.1 µM in each case.
Regarding `CCNC(=O)Nc1nc2cc(C3(O)c4ccccc4C(=O)N3Cc3ccccc3)ccc2[nH]1` (stereo not drawn) [Entry 149, N-ethyl-N′-{5-[1-hydroxy-3-oxo-2-(phenylmethyl)-2,3-dihydro-1H-isoindol-1-yl]-1H-benzimidazol-2-yl}urea], the IC50 on c-Raf and on B-Raf was less than 0.1 µM throughout.
Take `C[C@H](c1ccccc1)N1C(=O)c2ccccc2C1(O)c1ccc2[nH]c(NC(=O)OCc3ccccc3)nc2c1` (stereo partly drawn) [Entry 150, phenylmethyl (5-{1-hydroxy-3-oxo-2-[(1R)-1-phenylethyl]-2,3-dihydro-1H-isoindol-1-yl}-1H-benzimidazol-2-yl)carbamate]: the IC50 at c-Raf and on B-Raf was less than 0.1 µM in each case.
With `COC(=O)Nc1nc2ccc(C3(O)c4ccccc4C(=O)N3c3cc(N)cc(Cl)c3)cc2[nH]1` (stereo not drawn) [Entry 151, methyl {6-[2-(3-amino-5-chlorophenyl)-1-hydroxy-3-oxo-2,3-dihydro-1H-isoindol-1-yl]-1H-benzimidazol-2-yl}carbamate], the IC50 on c-Raf and at B-Raf was less than 0.1 µM throughout.
Regarding `O=C(Nc1nc2cc(C3(O)c4ccccc4C(=O)N3Cc3ccccc3)ccc2[nH]1)OCC1CCNCC1` (stereo not drawn) [Entry 152, piperidin-4-ylmethyl {5-[1-hydroxy-3-oxo-2-(phenylmethyl)-2,3-dihydro-1H-isoindol-1-yl]-1H-benzimidazol-2-yl}carbamate], the 50% inhibitory concentration (IC50) on c-Raf is 0.1 to 1 µM; on B-Raf, less than 0.1 µM.
For `COC(=O)Nc1nc2cc(C3(O)c4ccccc4C(=O)N3CC3CC3)ccc2[nH]1` (stereo not drawn) [Entry 153, methyl {5-[2-(cyclopropylmethyl)-1-hydroxy-3-oxo-2,3-dihydro-1H-isoindol-1-yl]-1H-benzimidazol-2-yl}carbamate], in that order: 0.1 to 1 µM and 0.1 to 1 µM.
For `COC(=O)Nc1nc2cc(C3(O)c4ccccc4C(=O)N3CC(C)(C)C)ccc2[nH]1` (stereo not drawn) [Entry 154, methyl {5-[2-(2,2-dimethylpropyl)-1-hydroxy-3-oxo-2,3-dihydro-1H-isoindol-1-yl]-1H-benzimidazol-2-yl}carbamate], in that order: 1 to 10 µM and 1 to 10 µM.
`COC(=O)Nc1nc2cc(C3(O)c4ccccc4C(=O)N3c3cc(Cl)cc(Cl)c3)ccc2[nH]1` (stereo not drawn) [Entry 155, methyl {5-[2-(3,5-dichlorophenyl)-1-hydroxy-3-oxo-2,3-dihydro-1H-isoindol-1-yl]-1H-benzimidazol-2-yl}carbamate]: the IC50 at c-Raf and on B-Raf was less than 0.1 µM throughout.
As to `COC(=O)Nc1nc2cc(C3(O)c4ccccc4C(=O)N3c3cc(F)cc(F)c3)ccc2[nH]1` (stereo not drawn) [Entry 156, methyl {5-[2-(3,5-difluorophenyl)-1-hydroxy-3-oxo-2,3-dihydro-1H-isoindol-1-yl]-1H-benzimidazol-2-yl}carbamate], the IC50 on c-Raf and on B-Raf was 0.1 to 1 µM throughout.
Regarding `CCNC(=O)Nc1nc2cc(C3(O)c4ccccc4C(=O)N3[C@H](C)c3ccccc3)ccc2[nH]1` (stereo partly drawn) [Entry 157, N-ethyl-N′-(5-{1-hydroxy-3-oxo-2-[(1R)-1-phenylethyl]-2,3-dihydro-1H-isoindol-1-yl}-1H-benzimidazol-2-yl)urea], the IC50 at c-Raf and at B-Raf was less than 0.1 µM each time.
